Source: patent publication US12544373B2, “Treatment of cancer, inflammatory diseases and autoimmune diseases” (Usher III Initiative, Inc., priority 2020, dated 2026)
Values joined by “and” are separate entries in the source; they are usually repeats but may differ in a detail not shown here. Equal entries are not always repeated. Where two headings read alike, the source gives them in different places.

Assays:
[1] = tested on: 20 human cancer-cell lines representing nine cancer types; assay: CellTiter-Blue Cell Viability Assay (Example 2), whole panel; format: cell-based
Description: (§1) The CellTiter-Blue® Cell Viability Assay was used to assess the viability of cells from various cancer cell lines, in the presence or absence of Compound 85 (at different concentrations). This assay provides a homogeneous, fluorometric method for estimating the number of viable cells present in multi-well plates. Viable cells retain the ability to reduce resazurin to resorufin, which is highly fluorescent. […] The fluorescence produced is proportional to the number of viable cells. There is a linear relationship between cell number and fluorescence.
(§2) Cancer cells (see Table 6) were harvested from exponential phase cultures, counted and plated in 96 well flat-bottom microtiter plates, at a cell density 6,000-20,000 cells/well, depending on the cell line's growth rate. The culture medium was supplemented with 10% (v/v) foetal calf serum and 50 μg/mL gentamicin (140 μL/well). Cultures were incubated at 37° C. and 5% CO2 in a humidified atmosphere.
(§3) Compound 85 was serially diluted in DMSO, and five Compound 85 concentrations in half-log increments were used: 0.03 μM, 0.09 μM, 0.30 μM, 1.0 μM, and 3.0 μM. After 24 h, 10 μL of Compound 85 (dissolved in DMSO) or control (DMSO) medium were added, in duplicates, and left on the cells for another 72 h. Compound 85 solutions were added to the assay plates using a Tecan Freedom EVO 200 robotic platform. The DMSO concentration was kept constant at 0.3% v/v across the assay plate.
(§4) After incubation of up to 72 hours, fluorescence (FU) was measured using the EnSpire® multimode plate reader (Perkin Elmer) (excitation λ=570 nm, emission λ=600 nm).
(§5) Cancer cell lines used: Compound 85's anti-cancer effect was tested in 20 human cancer-cell lines representing nine cancer types (Table 6).
(§6) The percentage of viable cells in the presence of Compound 85 (Test condition, T), at different concentrations, are presented in Table 7 and expressed as a percentage of the number of viable cells in the presence of DMSO without Compound 85 (Control condition, C).
(§7) The relative IC50 is determined as the Compound 85 concentration giving a response halfway between the maximum cell viability signal (i.e., a 100% cell viability, no Compound 85 response) and the minimal viability signal (i.e. maximum cell viability inhibition achieved by Compound 85), in a sigmoidal concentration-effect curve.
(§8) The absolute IC50 is determined as the concentration that is associated with a T/C ratio of 50%.

SXFS 1301 = assay: CellTiter-Blue Cell Viability Assay (Example 2), soft tissue sarcoma; format: cell-based, human; settings: for T/C %: 72 h
Description: as §1, §2, §3, §4, §5, §6, §7, §8

SXFS Hs 729 = assay: as above; format: cell-based, human; settings: for T/C %: 72 h
Description: as §1, §2, §3, §4, §5, §6, §7, §8

MAXFHER BT-474 = assay: CellTiter-Blue Cell Viability Assay (Example 2), breast; format: cell-based, human; settings: for T/C %: 72 h
Description: as §1, §2, §3, §4, §5, §6, §7, §8

MAXFTN 401 = assay: as above; format: cell-based, human; settings: for T/C %: 72 h
Description: as §1, §2, §3, §4, §5, §6, §7, §8

MAXFTN MDA-MB-453 = assay: as above; format: cell-based, human; settings: for T/C %: 72 h
Description: as §1, §2, §3, §4, §5, §6, §7, §8

MAXFHER JIMT-1 = assay: as above; format: cell-based, human; settings: for T/C %: 72 h
Description: as §1, §2, §3, §4, §5, §6, §7, §8

PAXF 1657 = assay: CellTiter-Blue Cell Viability Assay (Example 2), pancreatic; format: cell-based, human; settings: for T/C %: 72 h
Description: as §1, §2, §3, §4, §5, §6, §7, §8

PAXF HUP-T3 = assay: as above; format: cell-based, human; settings: for T/C %: 72 h
Description: as §1, §2, §3, §4, §5, §6, §7, §8

PRXF PC-3 = assay: CellTiter-Blue Cell Viability Assay (Example 2), prostate; format: cell-based, human; settings: for T/C %: 72 h
Description: as §1, §2, §3, §4, §5, §6, §7, §8

PRXF DU-145 = assay: as above; format: cell-based, human; settings: for T/C %: 72 h
Description: as §1, §2, §3, §4, §5, §6, §7, §8

[2] = geometric mean over human cancer cell lines of Table 8

Q: Which results are given for CC(C)(O)Cn1nc(-c2ccccc2)c2c(Cl)c(-c3ccccc3)nnc21 [Compound 85]?
A: anti-cancer activity, concentration dependence ([1]; all of the 20 human cancer cell lines tested): concentration dependent anti-cancer activity; anti-cancer activity ([1]; at concentration of 0.95 μM, 20 human cancer-cell lines, nine cancer types): significant anti-cancer activity; geometric mean absolute IC70 [1, 2]: 712 nM; geometric mean relative IC70 [1, 2]: 675 nM; IC50 ([1]; geometric mean over human cancer cell lines of Table 8, read-out: geometric mean absolute IC50): 596 nM and 600 nM; IC50 ([1]; geometric mean over human cancer cell lines of Table 8, read-out: geometric mean relative IC50): 583 nM; Absolute IC70 (SXFS 1301): 570 nM; Relative IC70 (SXFS 1301): 558 nM; T/C % (SXFS 1301; 0.03 μM): 105%; T/C % (SXFS 1301; 0.095 μM): 106%; T/C % (SXFS 1301; 0.3 μM): 102%; T/C % (SXFS 1301; 0.95 μM): 3%; T/C % (SXFS 1301; 3.0 μM): 2%; IC50 (SXFS 1301; read-out: Absolute IC50): 501 nM; IC50 (SXFS 1301; read-out: Relative IC50): 490 nM; Absolute IC70 (SXFS Hs 729): 808 nM; Relative IC70 (SXFS Hs 729): 789 nM; T/C % (SXFS Hs 729; 0.03 μM): 99%; T/C % (SXFS Hs 729; 0.095 μM): 99%; T/C % (SXFS Hs 729; 0.3 μM): 99%; T/C % (SXFS Hs 729; 0.95 μM): 13%; T/C % (SXFS Hs 729; 3.0 μM): 7%; IC50 (SXFS Hs 729; read-out: Absolute IC50): 733 nM; IC50 (SXFS Hs 729; read-out: Relative IC50): 724 nM; Absolute IC70 (MAXFHER BT-474): 1316 nM; Relative IC70 (MAXFHER BT-474): 1010 nM; T/C % (MAXFHER BT-474; 0.3 μM): 99%; T/C % (MAXFHER BT-474; 0.95 μM): 46%; T/C % (MAXFHER BT-474; 3.0 μM): 17%; IC50 (MAXFHER BT-474; read-out: Absolute IC50): 886 nM; IC50 (MAXFHER BT-474; read-out: Relative IC50): 766 nM; Absolute IC70 (MAXFTN 401): 503 nM; Relative IC70 (MAXFTN 401): 500 nM; T/C % (MAXFTN 401; 0.03 μM): 99%; T/C % (MAXFTN 401; 0.095 μM): 99%; T/C % (MAXFTN 401; 0.3 μM): 87%; T/C % (MAXFTN 401; 0.95 μM): 3%; T/C % (MAXFTN 401; 3.0 μM): 1%; IC50 (MAXFTN 401; read-out: Absolute IC50): 429 nM; IC50 (MAXFTN 401; read-out: Relative IC50): 429 nM; Absolute IC70 (MAXFTN MDA-MB-453): 765 nM; Relative IC70 (MAXFTN MDA-MB-453): 763 nM; T/C % (MAXFTN MDA-MB-453; 0.03 μM): 101%; T/C % (MAXFTN MDA-MB-453; 0.095 μM): 97%; T/C % (MAXFTN MDA-MB-453; 0.3 μM): 101%; T/C % (MAXFTN MDA-MB-453; 0.95 μM): 3%; T/C % (MAXFTN MDA-MB-453; 3.0 μM): 1%; IC50 (MAXFTN MDA-MB-453; read-out: Absolute IC50): 719 nM; IC50 (MAXFTN MDA-MB-453; read-out: Relative IC50): 717 nM; Absolute IC70 (MAXFHER JIMT-1): 957 nM; Relative IC70 (MAXFHER JIMT-1): 844 nM; T/C % (MAXFHER JIMT-1; 0.03 μM): 97%; T/C % (MAXFHER JIMT-1; 0.095 μM): 97%; T/C % (MAXFHER JIMT-1; 0.3 μM): 96%; T/C % (MAXFHER JIMT-1; 0.95 μM): 30%; T/C % (MAXFHER JIMT-1; 3.0 μM): 14%; IC50 (MAXFHER JIMT-1; read-out: Absolute IC50): 742 nM; IC50 (MAXFHER JIMT-1; read-out: Relative IC50): 702 nM; Absolute IC70 (PAXF 1657): 1166 nM; Relative IC70 (PAXF 1657): 1169 nM; T/C % (PAXF 1657; 0.03 μM): 97%; T/C % (PAXF 1657; 0.095 μM): 94%; T/C % (PAXF 1657; 0.3 μM): 97%; T/C % (PAXF 1657; 0.95 μM): 66%; T/C % (PAXF 1657; 3.0 μM): 1%; IC50 (PAXF 1657; read-out: Absolute IC50): 1040 nM; IC50 (PAXF 1657; read-out: Relative IC50): 1050 nM; Absolute IC70 (PAXF HUP-T3): 723 nM; Relative IC70 (PAXF HUP-T3): 602 nM; T/C % (PAXF HUP-T3; 0.03 μM): 95%; T/C % (PAXF HUP-T3; 0.095 μM): 102%; T/C % (PAXF HUP-T3; 0.3 μM): 88%; T/C % (PAXF HUP-T3; 0.95 μM): 21%; T/C % (PAXF HUP-T3; 3.0 μM): 16%; IC50 (PAXF HUP-T3; read-out: Absolute IC50): 532 nM; IC50 (PAXF HUP-T3; read-out: Relative IC50): 487 nM; Absolute IC70 (PRXF PC-3): 1349 nM; Relative IC70 (PRXF PC-3): 1326 nM; T/C % (PRXF PC-3; 0.03 μM): 104%; T/C % (PRXF PC-3; 0.095 μM): 103%; T/C % (PRXF PC-3; 0.3 μM): 103%; T/C % (PRXF PC-3; 0.95 μM): 2%; T/C % (PRXF PC-3; 3.0 μM): 1%; IC50 (PRXF PC-3; read-out: Absolute IC50): 1100 nM; IC50 (PRXF PC-3; read-out: Relative IC50): 1080 nM; Absolute IC70 (PRXF DU-145): 1528 nM; Relative IC70 (PRXF DU-145): 1376 nM; T/C % (PRXF DU-145; 0.03 μM): 100%; T/C % (PRXF DU-145; 0.095 μM): 110%; T/C % (PRXF DU-145; 0.3 μM): 102%; T/C % (PRXF DU-145; 0.95 μM): 11%; T/C % (PRXF DU-145; 3.0 μM): 6%; IC50 (PRXF DU-145; read-out: Absolute IC50): 1090 nM; IC50 (PRXF DU-145; read-out: Relative IC50): 1010 nM
